Here are results for twelve molecules from patent US7253149B2, “Compounds and methods for modulating cell-adhesion mediated drug resistance” (University of South Florida, priority 2000, dated 2007).

In general, IC50 refers to the concentration that inhibits the measured activity by half.

Like-named read-outs stand apart in the source and are kept apart here. Marks after values point to notes of the source that are not given here. Where no end group is shown, it is not given here. [ ]: non-standard residue; d: D form.

In assay [1] the test system is K562 cells. Description: MTT cytotoxicity assay, FN adhered vs suspension K562 cells. The class given is cell-based. As to the method:
Plastic 96-well Immunosorp plates (Nunc, Denmark) are coated with 50 μl (40 μg/ml) FN (Life Technologies) or BSA overnight. Cells are washed once and resuspended in serum-free RPMI 1640, then 2×10^4 (K562) cells are added to each FN coated well. 8×10^3 (K562) cells are added to BSA coated wells. Cells are incubated for 2 hours at 37° C., washed with serum free media, and put back into serum-containing media. Following 24 hours in a tissue culture incubator, drug or vehicle control is added to each well for 90 minutes, media is removed and replaced by drug-free media for 96 hours. In some experiments, the drug is allowed to remain in each well for 96 hours. 50 μl 3-[4,5-Dimethylthiazol-2-yl]-2,5-diphenyltetrazolium bromide;Thiazolyl blue (MTT dye) (Sigma) is added to each well for 4 hours, plates are centrifuged and each well aspirated. Dye is solubilized with 100 μl DMSO and plates are read at 540 nm on an automated microtiter plate reader. A blank well containing only medium and drug is also run as a control in all experiments. IC50 values are calculated by linear regression analysis of percent survival vs. drug concentration.
The MTT assay is used to detect differences in the drug sensitivity of FN adhered vs. suspension-cultured cells following a 90 minutes or 96 hours (continuous) exposure to either mitoxantrone or melphalan (L-phenylalanine mustard or LPAM). After a 96 hour period in a cell incubator, cell survival is determined by the ability of viable cells to reduce MTT dye to formazan. IC50 values are derived through linear regression of the log-linear dose-response plots for each cell line to each drug. Student's T-test is used to analyze differences in drug response using data collected from at least three different experiments. FIGS. 8A and 8B depict representative continuous exposure experiments using mitoxantrone and LPAM, respectively.

In assay [2] the test system is K562 cells. As to the kind of experiment: Adhesion of K562 cells to FN in presence of AG957. In kind it is cell-based. The note with it: concentrations of inhibitor used in cytotoxicity assays. As for the experimental part: Cellular adhesion to FN is determined.
The BCR/ABL kinase is believed to be critical to the survival of CML cells through its effects on a number of signal transduction pathways. Inhibitors of this fusion protein show promise as apoptosis-inducing drugs in CML cells. BCR/ABL inhibition by relatively high doses of the tyrphostin AG957 can have negative effects on FN adhesion. At the concentrations of inhibitor used in cytotoxicity assays, the adhesion of K562 cells to FN is not affected by more than 20–40 percent.

Assay [3] concerns BCR/ABL-associated tyrosine kinase activity. Description: Anti-phosphotyrosine immunoblotting of AG957 treated K562 cells. Conditions: 20 μM AG957, four hours. For orientation: A western blot detects proteins with antibodies after separation by electrophoresis.
Assay [4] relates to K562 cells. The class given is cell-based.
The test system of assay [5] is 8226/S myeloma cells. As to the kind of experiment: MTT cytotoxicity assay, FN-adhered vs non-adhered 8226/S cells. The note with it: for IC50: Homo sapiens. The class given is cell-based, human. On the technique in general: Formazan colour is commonly taken as a measure of viable cells.
The test system of assay [6] is 8226/S myeloma cells. Description: Annexin V apoptotic analysis, FN-adhered vs non-adhered 8226/S cells. Conditions: 50 uM melphalan, 24 hours. In kind it is cell-based, human.
Assay [7] relates to K562/pcDNA3.1 and K562/VLA-4 cells. Description: Annexin V apoptosis analysis of α4 and empty vector transfectants adhered to FN with blocking antibodies. The note with it: for level of cytoprotection in comparison to drug treated suspension cells: 100 μM LPAM 90 minutes, 24 hours; for protection against melphalan-induced apoptosis: α5 blocking antibody prior to adhesion. The class given is cell-based.

A further assay deals with 8226/S. The class given is cell-based, human.
A further assay deals with fibronectin. As to the kind of experiment: cell-based or functional assay.
The test system of the next assay is U937 cells. Description: Microtiter adhesion assay, adhesion of U937 cells to fibronectin. In kind it is cell-based. The note with it: 5 μg/ml to 80 μg/ml, FIG. 26.
Assay [8] concerns the target integrin β7 subunit (human) (UniProt P26010). Description: flow cytometry (FACS) on 8226/S cells, FITC-conjugated secondary antibody. In general terms: In flow cytometry, cells or beads pass a laser one at a time.
For assay [9] the target is unchanged. As to the kind of experiment: flow cytometry (FACS) on 8226/LR5 cells, FITC-conjugated secondary antibody.
For assay [10] the target is unchanged. As to the kind of experiment: flow cytometry (FACS) on 8226/DOX6 cells, FITC-conjugated secondary antibody.
Assay [11] addresses VLA-5 (α5β1 integrin) (human) (UniProt P08648). Description: cell-based or functional assay.
Assay [12] concerns the target integrin α5 subunit (CDw49e) (human) (UniProt P08648). Description: flow cytometry (FACS) on 8226/S cells, FITC-conjugated secondary antibody.
For assay [13] the target is unchanged. Description: flow cytometry (FACS) on 8226/LR5 cells, FITC-conjugated secondary antibody.
Assay [14] has the same target. Description: flow cytometry (FACS) on 8226/DOX6 cells, FITC-conjugated secondary antibody.
Assay [15] has as its target integrin α4 subunit (CDw49d) (human) (UniProt P13612). Description: flow cytometry (FACS) on 8226/S cells, FITC-conjugated secondary antibody.
Assay [16] has the same target. Description: flow cytometry (FACS) on 8226/LR5 cells, FITC-conjugated secondary antibody.
The target is the same in assay [17]. As to the kind of experiment: flow cytometry (FACS) on 8226/DOX6 cells, FITC-conjugated secondary antibody.

UniProt P26010, sequence (P26010 20-798): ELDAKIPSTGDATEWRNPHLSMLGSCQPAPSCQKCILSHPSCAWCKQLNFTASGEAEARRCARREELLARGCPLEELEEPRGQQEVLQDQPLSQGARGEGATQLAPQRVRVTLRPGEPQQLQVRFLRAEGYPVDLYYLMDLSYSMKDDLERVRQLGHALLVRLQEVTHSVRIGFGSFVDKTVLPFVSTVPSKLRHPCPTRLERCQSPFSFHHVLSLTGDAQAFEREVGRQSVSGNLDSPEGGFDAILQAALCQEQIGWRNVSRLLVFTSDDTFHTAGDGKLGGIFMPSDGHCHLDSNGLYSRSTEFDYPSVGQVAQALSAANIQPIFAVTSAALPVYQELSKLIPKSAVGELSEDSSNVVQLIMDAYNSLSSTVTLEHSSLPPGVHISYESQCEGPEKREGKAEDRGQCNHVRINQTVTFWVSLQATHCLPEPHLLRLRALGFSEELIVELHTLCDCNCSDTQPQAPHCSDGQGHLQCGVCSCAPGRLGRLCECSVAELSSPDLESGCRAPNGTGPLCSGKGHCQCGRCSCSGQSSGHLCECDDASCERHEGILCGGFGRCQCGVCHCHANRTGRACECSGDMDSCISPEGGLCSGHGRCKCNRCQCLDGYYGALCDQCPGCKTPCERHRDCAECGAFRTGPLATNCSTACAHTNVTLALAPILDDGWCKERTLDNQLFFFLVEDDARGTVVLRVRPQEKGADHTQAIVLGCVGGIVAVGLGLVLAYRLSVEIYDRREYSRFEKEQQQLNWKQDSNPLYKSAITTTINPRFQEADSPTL

As for `COC(=O)c1ccc(NCc2cc(O)ccc2O)cc1` [AG957], the “fold resistance of FN adhered cells over suspension cells” value with K562 cells [1] (AG957 for 96 hours) is 3.6. Further, the half-maximal inhibitory concentration (IC50) in the assay with K562 cells [1] (AG957 for 96 hours, three independent experiments, read-out: mean IC50 FN adhered cells) was 12.9 µM; in the assay with K562 cells [1] (AG957 for 96 hours, three independent experiments, read-out: mean IC50 suspension grown cells) it was 3.6 µM. Also, the “effect on adhesion of K562 cells to FN” value with K562 cells [2] was 20–40%. Besides, the “BCR/ABL associated tyrosine phosphorylation” value in assay [3] was “completely abrogated”.

Turning to `Nc1ccn([C@@H]2O[C@H](CO)[C@@H](O)[C@@H]2O)c(=O)n1` [Ara-C], in the assay with K562 cells [4], the “% Control death” value was 54.9* %, the “FN: mean death” value amounted to 6.2 ± 1.6 and the “Suspension: mean death” value was 11.3 ± 5.5.

On to `N[C@@H](Cc1ccc(N(CCCl)CCCl)cc1)C(=O)O` [LPAM, L-phenylalanine nitrogen mustard], for which the half-inhibitory concentration (IC50) in the assay with 8226/S myeloma cells [5] (read-out: mean IC50 value for FN-adhered cells) is 48 µM; with 8226/S myeloma cells [5] (read-out: mean IC50 value for cells grown on BSA), 30 µM; with K562 cells [1] (Homo sapiens, K562, 1.5 h, 90 min. exposure, FN adhered, read-out: Fibronectin mean IC50), 190 µM; in the assay with K562 cells [1] (Homo sapiens, K562, 1.5 h, 90 min. exposure, read-out: Suspension mean IC50) it was 29.3 µM; in the assay on K562 cells [1] (Homo sapiens, K562, 1.5 h, 90 minutes exposure, text b188, read-out: mean IC50 suspension (printed without exponent and unit)) it was 29.3 µM; in the assay on K562 cells [1] (Homo sapiens, K562, continuous (96 hours) exposure, FN adhered, read-out: Fibronectin mean IC50), 57.3 µM. Further, the IC50 in the assay with K562 cells [1] (Homo sapiens, K562, continuous (96 hours) exposure, read-out: Suspension mean IC50) came to 25.5 µM. Moreover, in the assay on 8226/S myeloma cells [5] (n=3), the “mean difference FN-adhered vs BSA” value was determined as 1.7. Moreover, in the assay on 8226/S myeloma cells [6], the “percentage of apoptotic cells, FN-adhered” value turned out to be 16.53%. Also, the “percentage of apoptotic cells, non-adhered” value in the assay on 8226/S myeloma cells [6] is reported as 21.5%. Besides, in the assay with K562 cells [1] (continuous exposure), the “Fold resistance FN adhered vs suspension” value is given as 2.25 fold. Besides, the “FN: mean death” value in the assay with K562 cells [4] (100 μM, 1 hr) came to 11.0 ± 8.3; with K562 cells [4] (100 μM, cont. exp.), 23.3 ± 6.4. For the same molecule, the “Suspension: mean death” value in the assay with K562 cells [4] (100 μM, 1 hr) worked out at 37.5 ± 24.0; in the assay on K562 cells [4] (100 μM, cont. exp.), 39.8 ± 3.2. Moreover, the “% Control death” value in the assay on K562 cells [4] (100 μM, 1 hr, FN vs suspension) is given as 29.3* %; in the assay on K562 cells [4] (100 μM, cont. exp., FN vs suspension) it was 58.5* %. Also, the “level of cytoprotection in comparison to drug treated suspension cells” value in [7] (K562/VLA-4 adhering through both α4 and α5) is 30.0±1.5%; in assay [7] (K562/pcDNA3.1 adhered through α5 alone), 29.9±5.3%. For the same molecule, the “protection against melphalan-induced apoptosis” value in assay [7] (K562/VLA-4) was 20.6±1.9%; in assay [7] (K562/pcDNA3.1), 0±11.1%. Also, in the assay on 8226/S, the “effect of acute exposure on cell surface integrin expression” value was “no immediate effects”.

`CC[C@]1(O)C[C@H]2CN(CCc3c([nH]c4ccccc34)[C@@](C(=O)OC)(c3cc4c(cc3OC)N(C=O)[C@H]3[C@@](O)(C(=O)OC)[C@H](OC(C)=O)[C@]5(CC)C=CCN6CC[C@]43[C@@H]65)C2)C1` [VCR, vincristine]: the “FN-mediated protection against the drug” value in the assay with K562 cells [4] (continuous exposure) was “not significant”.

As for `COc1cccc2c1C(=O)c1c(O)c3c(c(O)c1C2=O)C[C@@](O)(C(=O)CO)C[C@@H]3O[C@H]1C[C@H](N)[C@H](O)[C@H](C)O1` [doxorubicin, Doxorubicin], the “effect of acute exposure on cell surface integrin expression” value in the assay on 8226/S (wide range of concentrations, 1–48 hours) is listed as “no immediate effects”.

Regarding `O=C1c2c(O)ccc(O)c2C(=O)c2c(NCCNCCO)ccc(NCCNCCO)c21` [mitoxantrone], the “Fold resistance FN adhered vs suspension” value in the assay on K562 cells [1] (90 min. exposure) is recorded as “approximately 3.7 fold”; with K562 cells [1] (continuous exposure) it was 6.8 fold.

“VLA-4 (α4β1 integrin, Very Late Activation Antigen 4) (from UniProt P13612 34-1032; P05556 21-798)” displayed a level of cytoprotection against melphalan-induced apoptosis in comparison to drug treated suspension cells (Annexin V, flow cytometry) in the assay with fibronectin of 20.6 percent.

“VLA-5 (α5β1 integrin) (from UniProt P08648 42-1049; P05556 21-798) (receptor)” had a level of cytoprotection against melphalan-induced apoptosis in comparison to drug treated suspension cells (Annexin V, flow cytometry) with fibronectin of 29.9 percent.

For the molecule “kmviywkag ([dK][dM][dV][dI][dY][dW][dK][dA]G) [RZ-3, D-amino acid peptide Lys-Met-Val-Ile-Tyr-Trp-Lys-Ala-Gly, each amino acid a D-amino acid]”, in the assay with U937 cells, the “effect on adhesion of U937 cells to FN” value is recorded as “effective in preventing FN adhesion”.

Turning to monoclonal antibody FIB504 (anti-β7), the mean fluorescence intensity was found to be 5.72 in assay [8], 40.2 in [9] and 18.5 in assay [10].

“monoclonal antibody P1D6 (anti-CDw49e, α5)” had a level of cytoprotection against melphalan-induced apoptosis in comparison to drug treated suspension cells (Annexin V, flow cytometry) in assay [11] of 0 percent. The mean fluorescence intensity in [12] turned out to be 14.2; in assay [13], 11.9; in assay [14], 7.32.

For “monoclonal antibody P4G9 (anti-CDw49d, α4)”, the mean fluorescence intensity in assay [15] was 10.4; in assay [16] it was 46.5; in [17], 69.
